According to patent publication US12365685B2, “Substituted fused aromatic ring derivative, composition and use thereof” (Shenzhen TargetRx, Inc., priority 2019, dated 2025):
Read-outs that look alike come from different tables or passages of the source.

Tests used:
RET V804M = RET V804M (Homo sapiens (Human), UniProt P07949, V804M); test: Inhibition of kinase, RET V804M (HTRF KinEASE-TK); format: biochemical; conditions: reaction 20 minutes at room temperature
Experimental: (§1) Ret wt (Carna, Cat. No. 08-159-10 ug), RET (V804M), Active (Signalchem, Cat. No. R02-12GG), HTRF KinEASE-TK kit (Cisbio, Cat. No. 62TK0PEC), CEP-32496 (MCE, Cat. No. HY-15200), ATP (Sigma, Cat. No. A7699), DMSO (Sigma, Cat. No. D8418-1L), DTT (Sigma, Cat. No. D0632), MgCl2 (Sigma, Cat. No. M1028), 384-well plate (Labcyte, Cat. No. P-05525-BC).
(§2) Formulation of compound: The test compounds were dissolved in DMSO to obtain 10 mM stock solutions, which were then serially diluted 3-fold in DMSO to obtain 10 concentrations. At the time of addition, the compound was further diluted 10-fold with buffer.
(§3) In 5× kinase buffer A, Ret wt or RET V804M kinase was mixed with different concentrations of compounds prepared by pre-dilution for 10 minutes. Each concentration was tested in duplicate. The corresponding substrate and ATP were added, and reaction was performed at room temperature for 20 minutes (negative and positive controls were provided: the negative control was a blank control, and the positive control was CEP-32496). After completion of the reaction, detection reagents (reagents in the HTRF KinEASE-TK kit) were added. After incubating for 30 minutes at room temperature, enzyme activity in the presence of various concentrations of the compounds of the present disclosure was determined by Envision microplate reader, and inhibitory activity of different concentrations of the compounds on enzyme activity was calculated. The inhibitory activity of different concentrations of the compounds on enzyme activity was fitted by Graphpad 5.0 software, and the IC50 value was calculated, wherein A indicates IC50 10 nM, B indicates 10 nM<IC50≤50 nM, C indicates 50 nM<IC50≤100 nM, and D indicates IC50>100 nM.

Ret wt = Ret wt (Homo sapiens (Human), UniProt P07949); test: Inhibition of kinase, Ret wt (HTRF KinEASE-TK); format: biochemical
Experimental: as §1, §2, §3

Ba/F3 parental = test: Cytotoxicity assay, Ba/F3 parental (CellTiter-Glo); format: cell-based; conditions: Mus musculus, BaF3; 72 hrs, CTG
Text: [Worded in the source for another cell line; this cell line is reported under the same test.] (§4) Inhibitory effect of example compounds on the activity of Ba/F3 KIF5B-RET and Ba/F3 FLT3-ITD cells was detected.
(§5) Materials and reagents: fetal bovine serum (FBS) (GIBCO, Cat. No. 10099141), CellTiter-Glo® Luminescent Cell Viability Assay (Promega, Cat #G7572), 96-well clear flat-bottom black-wall plate (Corning®, Cat #3603).
(§6) • 1. Cells in the logarithmic growth phase were harvested and counted with a […]. Cell viability was detected by a trypan blue exclusion method, ensuring that cell viability was 90% or more; • 2. The cell concentration was adjusted to 3000 cells/well; 90 μl of cell suspension was added to each well of the 96-well plate; • 3. The cells in the 96-well plate were incubated overnight under the condition of 37° C., 5% CO2, and 95% humidity. Dilution and Addition of Compound: • 1. 10-fold compound solutions were formulated by 3.16-fold serial dilution starting from a concentration of 10 μM, resulting in 9 concentrations. 10 μL of the compound solutions were added in each well of the 96-well plate seeded with cells in triplicate for each compound concentration; • 2. The cells in the 96-well plate added with compounds were further incubated under the condition of 37° C., 5% CO2, and 95% humidity for 72 hrs, and then CTG analysis was carried out. Plate Reading at the End: • 1. CTG reagent was thawed, and the cell plate was equilibrated at room temperature for 30 minutes; • 2. An equal volume ([…]) of CTG solution was added to each well; • 3. The cell plate was shaken on an orbital shaker for 5 minutes to lyse the cells; • 4. The cell plate was placed at RT for 20 minutes to stabilize the luminescence signal; • 5. Luminescence value was read. Data Processing
(§7) Data were analyzed by GraphPad Prism 5.0 software, and fitted by nonlinear S-curve regression to obtain a dose-response curve, from which IC50 values were calculated, wherein A indicates IC50≤10 nM, B indicates 10 nM<IC50≤50 nM, C indicates 50 nM<IC50≤100 nM, and D indicates IC50>100 nM. cell survival (%)=(Lumtest compound−Lumculture medium control)/(Lumcell control−Lumculture medium control)×100%.

Ba/F3 FLT3-ITD cells = test: Cytotoxicity assay, Ba/F3 FLT3-ITD (CellTiter-Glo); format: cell-based; conditions: 72 hrs, CTG
Text: as §4, §5, §6, §7

Ba/F3 KIF5B-RET cells = test: Cytotoxicity assay, Ba/F3 KIF5B-RET (CellTiter-Glo); format: cell-based; conditions: Mus musculus, BaF3; 72 hrs, CTG
Text: as §4, §5, §6, §7

Ba/F3 KIF5B-RET^V804M = test: Cytotoxicity assay, Ba/F3 KIF5B-RET V804M (CellTiter-Glo); format: cell-based; conditions: Mus musculus, BaF3; 72 hrs, CTG
Text: [Worded in the source for another variant; this variant is reported under the same test.] as §4, §5, §6, §7

Ba/F3 FLT3-ITD^F691L = test: Cytotoxicity assay, Ba/F3 FLT3-ITD F691L (CellTiter-Glo); format: cell-based; conditions: Mus musculus, BaF3; 72 hrs, CTG
Ba/F3 FLT3-ITD^D835Y = test: Cytotoxicity assay, Ba/F3 FLT3-ITD D835Y (CellTiter-Glo); format: cell-based; conditions: Mus musculus, BaF3; 72 hrs, CTG
Text: [Worded in the source for another variant; this variant is reported under the same test.] as §4, §5, §6, §7

[1] = HTRF KinEASE-TK, reaction 20 minutes at room temperature, read-out: Ret wt IC50

Sequence of Ret wt (P07949 29-1114): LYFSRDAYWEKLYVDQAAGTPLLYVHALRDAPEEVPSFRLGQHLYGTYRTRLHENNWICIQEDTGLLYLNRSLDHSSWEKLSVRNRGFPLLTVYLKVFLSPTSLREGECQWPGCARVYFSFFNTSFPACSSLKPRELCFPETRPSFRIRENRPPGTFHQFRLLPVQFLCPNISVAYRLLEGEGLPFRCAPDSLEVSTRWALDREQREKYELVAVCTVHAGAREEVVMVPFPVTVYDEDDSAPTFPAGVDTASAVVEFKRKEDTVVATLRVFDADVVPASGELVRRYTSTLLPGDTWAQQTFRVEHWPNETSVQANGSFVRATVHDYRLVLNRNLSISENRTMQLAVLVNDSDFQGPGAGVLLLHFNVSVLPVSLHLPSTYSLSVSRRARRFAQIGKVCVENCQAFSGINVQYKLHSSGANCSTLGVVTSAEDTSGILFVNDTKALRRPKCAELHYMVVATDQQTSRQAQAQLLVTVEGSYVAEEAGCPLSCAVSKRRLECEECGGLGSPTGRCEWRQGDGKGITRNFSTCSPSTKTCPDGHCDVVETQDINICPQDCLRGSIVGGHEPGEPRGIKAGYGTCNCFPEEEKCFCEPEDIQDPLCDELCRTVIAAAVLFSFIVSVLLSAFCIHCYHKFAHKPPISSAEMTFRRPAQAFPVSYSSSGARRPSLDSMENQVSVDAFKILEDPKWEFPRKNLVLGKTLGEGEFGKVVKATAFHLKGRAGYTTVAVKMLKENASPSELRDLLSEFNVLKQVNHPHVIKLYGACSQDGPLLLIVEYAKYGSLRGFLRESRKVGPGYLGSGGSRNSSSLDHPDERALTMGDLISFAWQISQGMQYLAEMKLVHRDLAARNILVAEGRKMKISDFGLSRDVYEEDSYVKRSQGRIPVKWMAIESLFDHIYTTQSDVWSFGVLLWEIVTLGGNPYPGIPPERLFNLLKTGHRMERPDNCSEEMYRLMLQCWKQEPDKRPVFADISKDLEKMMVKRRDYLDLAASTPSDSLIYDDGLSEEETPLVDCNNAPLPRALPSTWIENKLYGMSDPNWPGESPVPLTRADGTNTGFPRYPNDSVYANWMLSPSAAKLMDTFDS
Sequence of RET V804M (P07949 29-1114 V804M): as the sequence (P07949 29-1114) above, with V776M counted along it

IC50 (RET V804M) [nM]	IC50 (Ret wt; [1]) [nM]	IC50 (Ret wt; read-out: IC50 against Ret wt) [nM]	SMILES	IC50 (Ba/F3 parental) [nM]	IC50 (Ba/F3 FLT3-ITD cells) [nM]	IC50 (Ba/F3 KIF5B-RET cells) [nM]	IC50 (Ba/F3 KIF5B-RET^V804M) [nM]	IC50 (Ba/F3 FLT3-ITD^F691L) [nM]	IC50 (Ba/F3 FLT3-ITD^D835Y) [nM]
75.8	> 100		Cn1cc(-c2cnn3c(-c4ccc(NC(=O)Nc5cc(C(F)(F)F)ccc5F)cc4)cnc3c2)cn1 [Compound T-1, 1-(2-fluoro-5-(trifluoromethyl)phenyl)-3-(4-(7-(1-methyl-1H-pyrazol-4-yl)imidazo[1,2-b]pyridazin-3-yl)phenyl)urea]	1090	2.32	534			
0.4	0.18		Cn1cc(-c2cnn3c(-c4ccc(CC(=O)Nc5cc(C(C)(C)C(F)(F)F)on5)cc4)cnc3c2)cn1 [Compound T-2, 2-(4-(7-(1-methyl-1H-pyrazol-4-yl)imidazo[1,2-b]pyridazin-3-yl)phenyl)-N-(5-(1,1,1-trifluoro-2-methylpropan-2-yl)isoxazol-3-yl)acetamide]	3270	0.79	4.91	17.9	1.43	1.22
0.21	0.13		Cn1cc(-c2cc3ncc(-c4ccc(CC(=O)Nc5cc(C(C)(C)C(F)(F)F)on5)cn4)n3cn2)cn1 [Compound T-3, 2-(6-(7-(1-methyl-1H-pyrazol-4-yl)imidazo[1,2-c]pyrimidin-3-yl)pyridin-3-yl)-N-(5-(1,1,1-trifluoro-2-methylpropan-2-yl)isoxazol-3-yl)acetamide]	8070	0.2	51.2	125	13.5	9.08
0.28	0.16		Cn1cc(-c2cc3ncc(-c4ccc(CC(=O)Nc5cc(C(C)(C)C(F)(F)F)on5)cc4)n3cn2)cn1 [Compound T-4, 2-(4-(7-(1-methyl-1H-pyrazol-4-yl)imidazo[1,2-c]pyrimidin-3-yl)phenyl)-N-(5-(1,1,1-trifluoro-2-methylpropan-2-yl)isoxazol-3-yl)acetamide]		0.49	7.17			
0.8	0.25		Cn1cc(Nc2nccn3c(-c4ccc(CC(=O)Nc5cc(C(C)(C)C(F)(F)F)on5)cc4)cnc23)cn1 [Compound T-5, 2-(4-(8-((1-methyl-1H-pyrazol-4-yl)amino)imidazo[1,2-a]pyrazin-3-yl)phenyl)-N-(5-(1,1,1-trifluoro-2-methylpropan-2-yl)isoxazol-3-yl)acetamide]	2270	0.1	2.48	5.43	1.43	1.43
1.04	0.45		Cn1cc(Nc2ccnn3c(-c4ccc(CC(=O)Nc5cc(C(C)(C)C(F)(F)F)on5)cc4)cnc23)cn1 [Compound T-6, 2-(4-(8-((1-methyl-1H-pyrazol-4-yl)amino)imidazo[1,2-b]pyridazin-3-yl)phenyl)-N-(5-(1,1,1-trifluoro-2-methylpropan-2-yl)isoxazol-3-yl)acetamide]	2180	1.05	6.2	20.9	1.24	2.38
0.2	0.15		Cn1cc(-c2cnn3c(-c4ccc(CC(=O)Nc5cc(C(C)(C)C(F)(F)F)on5)c(F)c4)cnc3c2)cn1 [Compound T-7, 2-(2-fluoro-4-(7-(1-methyl-1H-pyrazol-4-yl)imidazo[1,2-b]pyridazin-3-yl)phenyl)-N-(5-(1,1,1-trifluoro-2-methylpropan-2-yl)isoxazol-3-yl)acetamide]	1820	0.19	2.3	10.8	1.15	1.15
0.35	0.1	< 0.2	Cn1cc(-c2cc3ncc(-c4ccc(CC(=O)Nc5cc(C(C)(C)C(F)(F)F)on5)c(F)c4)n3cn2)cn1 [Compound T-8, 2-(2-fluoro-4-(7-(1-methyl-1H-pyrazol-4-yl)imidazo[1,2-c]pyrimidin-3-yl)phenyl)-N-(5-(1,1,1-trifluoro-2-methylpropan-2-yl)isoxazol-3-yl)acetamide]			15.4			
0.48	0.24		Cn1cc(-c2cnn3c(-c4ccc(CC(=O)Nc5cc(C(C)(C)C(F)(F)F)on5)cn4)cnc3c2)cn1 [Compound T-9, 2-(6-(7-(1-methyl-1H-pyrazol-4-yl)imidazo[1,2-b]pyridazin-3-yl)pyridin-3-yl)-N-(5-(1,1,1-trifluoro-2-methylpropan-2-yl)isoxazol-3-yl)acetamide]	> 10000	0.51	60.8	559	15.7	10.6
0.23	0.1		Cn1cc(-c2cnc3c(-c4ccc(CC(=O)Nc5cc(C(C)(C)C(F)(F)F)on5)cc4)cnn3c2)cn1 [Compound T-10, 2-(4-(6-(1-methyl-1H-pyrazol-4-yl)pyrazolo[1,5-a]pyrimidin-3-yl)phenyl)-N-(5-(1,1,1-trifluoro-2-methylpropan-2-yl)isoxazol-3-yl)acetamide]	930	< 0.1	9.98	8.15	1.02	1.83
0.87	0.68		Cn1cc(-c2ccc3c(-c4ccc(CC(=O)Nc5cc(C(C)(C)C(F)(F)F)on5)cc4)cnn3c2)cn1 [Compound T-11, 2-(4-(6-(1-methyl-1H-pyrazol-4-yl)pyrazolo[1,5-a]pyridin-3-yl)phenyl)-N-(5-(1,1,1-trifluoro-2-methylpropan-2-yl)isoxazol-3-yl)acetamide]	1400	0.2	15.4	3.66	1.12	1.73
1.12	0.31		Cn1cc(-c2cn3ncc(-c4ccc(CC(=O)Nc5cc(C(C)(C)C(F)(F)F)on5)cc4)c3cn2)cn1 [Compound T-12, 2-(4-(6-(1-methyl-1H-pyrazol-4-yl)pyrazolo[1,5-a]pyrazin-3-yl)phenyl)-N-(5-(1,1,1-trifluoro-2-methylpropan-2-yl)isoxazol-3-yl)acetamide]			9.98			
